Laboratory results as given in the supplement of paper PMC10627819.

Experiments:
[1] = system: S. aureus Newman; assay: fitness (endpoint OD595 vs no drug) (fraction); higher = more growth
Method in brief: (§1)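 In 384-well plates at 37 °C, cultures began at OD595 0.01 in 30 µl, with 55 µl used for S. pneumoniae. OD595 readings every 30 min for 14 h were corrected by the first reading. Fitness divides the stationary-phase transition optical density by the robust mean of no-drug control wells. The result is capped at 1.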

[2] = system: S. pneumoniae D39V; assay: as above
Method in brief: as §1
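Note: OD595 on entry to stationary phase over no-drug wells; at most 1.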

O=C(N[C@H](CO)[C@H](O)c1ccc([N+](=O)[O-])cc1)C(Cl)Cl [Chloramphenicol] + CC1(C)S[C@@H]2[C@H](NC(=O)Cc3ccccc3)C(=O)N2[C@H]1C(=O)O [Penicillin G]
fitness, [1]
Conditions | first compound 0.75 µg/mL | first compound 1.5 µg/mL | first compound 3 µg/mL
partner 0.0195 µg/mL | 0.744 | 0.494 | 0.187
partner 0.039 µg/mL | 0.742 | 0.475 | 0.173
partner 0.078 µg/mL | 0.72 | 0.477 | 0.181

O=C(N[C@H](CO)[C@H](O)c1ccc([N+](=O)[O-])cc1)C(Cl)Cl [Chloramphenicol] + CC1=C(C(=O)O)N2C(=O)[C@@H](NC(=O)[C@H](N)c3ccccc3)[C@H]2SC1 [Cephalexin]
fitness, [1]
Conditions | partner 0.25 µg/mL | partner 0.5 µg/mL | partner 1 µg/mL
first compound 0.75 µg/mL | 0.792 | 0.891 | 0.908
first compound 3 µg/mL | – | 0.312 | –

O=C(N[C@H](CO)[C@H](O)c1ccc([N+](=O)[O-])cc1)C(Cl)Cl [Chloramphenicol] + CO/N=C(\C(=O)N[C@@H]1C(=O)N2C(C(=O)O)=C(COC(N)=O)CS[C@H]12)c1ccco1 [Cefuroxime]
fitness, [1], one replicate
Conditions | first compound 0.75 µg/mL | first compound 1.5 µg/mL | first compound 3 µg/mL
partner 0.04875 µg/mL | 0.808 | 0.377 | –
partner 0.0975 µg/mL | 0.697 | 0.312 | 0.0949
partner 0.195 µg/mL | 0.64 | 0.206 | 0.065

O=C(N[C@H](CO)[C@H](O)c1ccc([N+](=O)[O-])cc1)C(Cl)Cl [Chloramphenicol] + O=C(O)[C@H]1/C(=C/CO)O[C@@H]2CC(=O)N21 [Clavulanic acid]
fitness, [1], one replicate
Conditions | first compound 0.75 µg/mL | first compound 1.5 µg/mL | first compound 3 µg/mL
partner 0.03125 µg/mL | 0.891 | 0.7 | 0.0864
partner 0.0625 µg/mL | 0.889 | 0.708 | –
partner 0.125 µg/mL | 0.85 | 0.494 | 0.11

CC[C@H]1OC(=O)[C@H](C)[C@@H](O[C@H]2C[C@@](C)(OC)[C@@H](O)[C@H](C)O2)[C@H](C)[C@@H](O[C@@H]2O[C@H](C)C[C@H](N(C)C)[C@H]2O)[C@](C)(OC)C[C@@H](C)C(=O)[C@H](C)[C@@H](O)[C@]1(C)O [Clarithromycin] + CC1=C(C(=O)O)N2C(=O)[C@@H](NC(=O)[C@H](N)c3ccccc3)[C@H]2SC1 [Cephalexin]
fitness, [2], one replicate
Conditions | first compound 0.007812 µg/mL | first compound 0.01562 µg/mL | first compound 0.03125 µg/mL | first compound 0.0625 µg/mL | first compound 0.125 µg/mL | first compound 0.25 µg/mL
partner 0.125 µg/mL | – | – | – | 0.701 | 0.33 | 0.138
partner 0.25 µg/mL | – | – | – | 0.723 | 0.381 | 0.174
partner 0.5 µg/mL | – | – | – | 0.777 | 0.4 | 0.163
partner 1 µg/mL | 0.314 | 0.417 | 0.236 | – | – | –
partner 2 µg/mL | 0.028 | 0.0414 | 0.0229 | – | – | –
partner 4 µg/mL | 0.0398 | 0.0811 | 0.0306 | – | – | –

fitness, [2]
Conditions | first compound 0.07 µg/mL | first compound 0.14 µg/mL | first compound 0.28 µg/mL
partner 1 µg/mL | 0.0665 | 0.0755 | 0.0377
partner 2 µg/mL | 0.0399 | 0.0839 | 0.0276
partner 4 µg/mL | 0.0364 | 0.0743 | 0.0463

CC[C@H]1OC(=O)[C@H](C)[C@@H](O[C@H]2C[C@@](C)(OC)[C@@H](O)[C@H](C)O2)[C@H](C)[C@@H](O[C@@H]2O[C@H](C)C[C@H](N(C)C)[C@H]2O)[C@](C)(OC)C[C@@H](C)C(=O)[C@H](C)[C@@H](O)[C@]1(C)O [Clarithromycin] + CN(C)[C@@H]1C(O)=C(C(N)=O)C(=O)[C@@]2(O)C(O)=C3C(=O)c4c(O)ccc(Cl)c4[C@@](C)(O)[C@H]3C[C@@H]12 [Chlortetracycline]
fitness, [2], one replicate
Conditions | first compound 0.007812 µg/mL | first compound 0.01562 µg/mL | first compound 0.03125 µg/mL
partner 0.012 µg/mL | 0.693 | 0.688 | 0.542
partner 0.024 µg/mL | 0.844 | 0.654 | 0.455
partner 0.048 µg/mL | 0.693 | 0.519 | 0.244

fitness, [2]
Conditions | first compound 0.0625 µg/mL | first compound 0.07 µg/mL | first compound 0.125 µg/mL | first compound 0.14 µg/mL | first compound 0.25 µg/mL | first compound 0.28 µg/mL
partner 0.012 µg/mL | – | 0.0902 | – | 0.14 | – | 0.093
partner 0.024 µg/mL | – | 0.121 | – | 0.122 | – | 0.0945
partner 0.048 µg/mL | – | 0.123 | – | 0.132 | – | 0.118
partner 0.375 µg/mL | 0.0643 | – | 0.0595 | – | 0.0683 | –
partner 0.75 µg/mL | 0.0438 | – | 0.0485 | – | 0.0679 | –
partner 1.5 µg/mL | 0.0386 | – | 0.0516 | – | 0.0374 | –

CC[C@H]1OC(=O)[C@H](C)[C@@H](O[C@H]2C[C@@](C)(OC)[C@@H](O)[C@H](C)O2)[C@H](C)[C@@H](O[C@@H]2O[C@H](C)C[C@H](N(C)C)[C@H]2O)[C@](C)(OC)C[C@@H](C)C(=O)[C@H](C)[C@@H](O)[C@]1(C)O [Clarithromycin] + CO/N=C(\C(=O)N[C@@H]1C(=O)N2C(C(=O)O)=C(COC(C)=O)CS[C@H]12)c1csc(N)n1 [Cefotaxime]
fitness, [2], one replicate
Conditions | first compound 0.007812 µg/mL | first compound 0.01562 µg/mL | first compound 0.03125 µg/mL
partner 0.0018 µg/mL | 0.903 | 0.874 | 0.652
partner 0.0035 µg/mL | 0.922 | 0.868 | 0.662
partner 0.007 µg/mL | 0.704 | 0.698 | 0.596

fitness, [2]
Conditions | first compound 0.0625 µg/mL | first compound 0.07 µg/mL | first compound 0.125 µg/mL | first compound 0.14 µg/mL | first compound 0.25 µg/mL | first compound 0.28 µg/mL
partner 0.0018 µg/mL | 0.643 | 0.155 | 0.36 | 0.11 | 0.134 | 0.0567
partner 0.0035 µg/mL | 0.626 | 0.149 | 0.354 | 0.106 | 0.136 | 0.0647
partner 0.007 µg/mL | 0.532 | 0.103 | 0.296 | 0.108 | 0.0943 | 0.0726
